Results reported in patent US8536160B2, “Azaheterocyclyl derivatives of androstanes and androstenes as medicaments for cardiovascular disorders” (priority 2006, dated 2013).
Where a name gives a salt, the structure may show the parent alone. Read-outs that look alike come from different tables or passages of the source.

Assays:
anesthetized guinea-pig = assay: Inotropic effect and lethal dose, slow intravenous infusion in anesthetized guinea-pig; format: in vivo; design: Maximum dose infused: unit not given here; settings: for Emax / ED80 / ED (max): Cavia porcellus, iv, 1.5 h; for Emax / ED80 / ED (max) / Dead/treated / Maximum dose infused: slow i.v. infusion over 90 minutes; for Emax / ED80 / ED (max) / % decrease from Emax after 20 min from the end of the infusion / Dead/treated: anesthetized guinea-pig; for Emax: maximum increase in contractile force, read-out: Emax % increase in +dP/dTmax; for ED80: read-out: ED80 (inotropic potency, dose increasing +dP/dTmax by 80%); for ED (max): read-out: EDmax (dose inducing maximum positive inotropic effect); for % decrease from Emax after 20 min from the end of the infusion: duration of the inotropic effect; for Maximum dose infused: maximum dose infused in the survived animals
[1] = molecular target: Dog Kidney Na+, K+-ATPase (Canis lupus familiaris, UniProt P50997); assay: Inhibition of the enzymatic activity of purified Na+,K+-ATPase (hydrolysis of 32P-ATP); format: biochemical
[2] = dog kidney enzyme, hydrolysis of 32P-ATP in presence and absence of compound, read-out: Na+, K+-ATPase Inhibition IC50
[3] = read-out: Na+, K+-ATPase Inhibition IC50

Work on `CC12CCC3C(CC(=O)C4CC(=NOC5CCNC5)CCC43C)C1CCC2=O` (mixture of isomers) [I-ae, (E,Z) 3-[3-(R)-Pyrrolidinyl]oxyiminoandrostane-6,17-dione hydrochloride] yielded an Emax (anesthetized guinea-pig) of 147%, an ED80 (anesthetized guinea-pig) of 2.28 µmol/kg and an ED (max) (anesthetized guinea-pig) of 4.26 µmol/kg. The “% decrease from Emax after 20 min from the end of the infusion” value (“% decrease from Emax after 20 min” below) (anesthetized guinea-pig) was 74%, the Dead/treated (anesthetized guinea-pig) was 0/3 and the Maximum dose infused (anesthetized guinea-pig) was 6.4. It also gave an IC50 ([1]; Na+, K+-ATPase Inhibition IC50) of 26 nM.

For `COC(=O)C1CC2C3CCC(=O)C3(C)CCC2C2(C)CCC(=NOC3CCNC3)CC12` (mixture of isomers) [I-au, (Z,E) 3-(3-(R)-Pyrrolidinyloxyimino)-6α-methoxycarbonylandrostane-17-one hydrochloride], the Emax (anesthetized guinea-pig) was 164%, the ED80 (anesthetized guinea-pig) was 11 µmol/kg and the ED (max) (anesthetized guinea-pig) was 23.3 µmol/kg. For the same compound, the “% decrease from Emax after 20 min” value (anesthetized guinea-pig) was 58%, the Dead/treated (anesthetized guinea-pig) was 0/4 and the Maximum dose infused (anesthetized guinea-pig) was 50.3. It also gave an IC50 [1, 2] of 160 nM.

Work on `CC12CCC3C(CC(=C(F)F)C4CC(=NOC5CCNC5)CCC43C)C1CCC2=O` (mixture of isomers) [I-az, (E,Z) 3-[3-(R)-Pyrrolidinyl]oxyimino-6-difluoromethyleneandrostan-17-one hydrochloride] yielded an Emax (anesthetized guinea-pig) of 244%, an ED80 (anesthetized guinea-pig) of 6.69 µmol/kg and an ED (max) (anesthetized guinea-pig) of 18.4 µmol/kg. For the same compound, the “% decrease from Emax after 20 min” value (anesthetized guinea-pig) was 20%, the Dead/treated (anesthetized guinea-pig) was 0/3 and the Maximum dose infused (anesthetized guinea-pig) was 25.2. The IC50 ([1]; Na+, K+-ATPase Inhibition IC50) was 21 nM.

With `CON=C1CC2C3CCC(=O)C3(C)CCC2C2(C)CCC(=NOC3CCNC3)CC12` (single isomer, unassigned) [I-bd, hydrochloride] the IC50 ([1]; Na+, K+-ATPase Inhibition IC50) was 18 nM.

With `CON=C1CC2C3CCC(=O)C3(C)CCC2C2(C)CCC(=NOC3CCNC3)CC12O` (single isomer, unassigned) [I-bv] the IC50 [1, 2] was 150 nM.

`CON=C1CC2C3CCC(=O)C3(C)CCC2C2(C)CCC(=NOC3CCN(C)C3)CC12O` (single isomer, unassigned) [I-ca] gave an IC50 [1, 2] of 6000 nM.

Work on `CC12CCC3C(C(=O)CC4CC(=NOC5CCNC5)CCC43C)C1CCC2=O` (single isomer, unassigned) [I-cb] yielded an IC50 ([1]; Na+, K+-ATPase Inhibition IC50) of 89 nM.

For `CC12CCC3C(C(=O)CC4CC(=NOC5CCNC5)CCC43C)C1CCC2=O` (single isomer, unassigned) [I-cc], the IC50 ([1]; Na+, K+-ATPase Inhibition IC50) was 570 nM.

Work on `CC12CCC3C(C(O)C(CO)C4CC(=NOC5CCNC5)CCC43C)C1CCC2=O` (single isomer, unassigned) [I-dl, hydrochloride] yielded an IC50 ([1]; Na+, K+-ATPase Inhibition IC50) of 170 nM.

Work on `C[C@]12CC/C(=N\OC3CCNCC3)CC1C(=O)C[C@@H]1[C@@H]2CC[C@]2(C)C(=O)CC[C@@H]12` (stereo partly shown) [I-aa, (E) 3-(4-Piperidyl)oxyiminoandrostane-6,17-dione hydrochloride] yielded an IC50 ([1]; Na+, K+-ATPase Inhibition IC50) of 4100 nM.

For `C[C@H]1C[C@@H]2[C@H](CC[C@]3(C)C(=O)CC[C@@H]23)[C@@]2(C)CC/C(=N\O[C@@H]3CCNC3)CC12` (stereo partly drawn) [I-aw, (E) 3-[3-(R)-Pyrrolidinyl]oxyimino-6α-methylandrostane-17-one fumarate], the IC50 ([1]; Na+, K+-ATPase Inhibition IC50) was 340 nM.

In the case of `C[C@H]1C[C@@H]2[C@H](CC[C@]3(C)C(=O)CC[C@@H]23)[C@@]2(C)CC/C(=N/O[C@@H]3CCNC3)CC12` (stereo partly drawn) [I-ax, (Z) 3-[3-(R)-Pyrrolidinyl]oxyimino-6α-methylandrostane-17-one hydrochloride], the IC50 ([1]; Na+, K+-ATPase Inhibition IC50) is reported as 260 nM.

For `C=C1C[C@H]2[C@@H]3CCC(=O)[C@@]3(C)CC[C@@H]2[C@@]2(C)CC/C(=N/O[C@H]3CCNC3)C[C@]12O` [I-bi, (Z) 3-[3′-(S)-Pyrrolidinyl]oxyimino-5α-hydroxy-6-methyleneandrostane-17-one fumarate], the IC50 ([1]; Na+, K+-ATPase Inhibition IC50) was 6000 nM.

Compound `C=C1C[C@H]2[C@@H]3CCC(=O)[C@@]3(C)CC[C@@H]2[C@@]2(C)CC/C(=N\O[C@H]3CCNC3)C[C@]12O` [I-bj, (E) 3-[3′-(S)-Pyrrolidinyl]oxyimino-5α-hydroxy-6-methyleneandrostane-17-one fumarate] has an IC50 ([1]; Na+, K+-ATPase Inhibition IC50) of 480 nM.

In the case of `C=C1C[C@H]2[C@@H]3CCC(=O)[C@@]3(C)CC[C@@H]2[C@@]2(C)CC/C(=N/O[C@@H]3CCN(C)C3)C[C@]12O` [I-bl, (Z) 3-[3′-(R)-(1-Methyl)pyrrolidinyl]oxyimino-5α-hydroxy-6-methyleneandrostane-17-one fumarate], the IC50 ([1]; Na+, K+-ATPase Inhibition IC50) is reported as 92000 nM.

In the case of `C=C1C[C@H]2[C@@H]3CCC(=O)[C@@]3(C)CC[C@@H]2[C@@]2(C)CC/C(=N\O[C@@H]3CCN(C)C3)C[C@]12O` [I-bm, (E) 3-[3′-(R)-(1-Methyl)-pyrrolidinyl]oxyimino-5α-hydroxy-6-methyleneandrostane-17-one fumarate], the IC50 [1, 3] is reported as 1400 nM.

For `C=C1C[C@H]2[C@@H]3CCC(=O)[C@@]3(C)CC[C@@H]2[C@@]2(C)CC/C(=N/O[C@H]3CCN(C)C3)C[C@]12O` [I-bn, (Z) 3-[3′-(S)-(1-Methyl)pyrrolidinyl]oxyimino)-5α-hydroxy-6-methyleneandrostane-17-one fumarate], the IC50 ([1]; Na+, K+-ATPase Inhibition IC50) was 95000 nM.

For `C=C1C[C@H]2[C@@H]3CCC(=O)[C@@]3(C)CC[C@@H]2[C@@]2(C)CC/C(=N\O[C@H]3CCN(C)C3)C[C@]12O` [I-bo, (E) 3-[3′-(S)-(1-Methyl)pyrrolidinyl]oxyimino)-5α-hydroxy-6-methyleneandrostane-17-one fumarate], the IC50 ([1]; Na+, K+-ATPase Inhibition IC50) was 21000 nM.

Work on `CO/N=C1\C[C@H]2[C@@H]3CCC(=O)[C@@]3(C)CC[C@@H]2[C@@]2(C)CC/C(=N/O[C@H]3CCN(C)C3)C[C@]12O` [I-bx, (Z) 3-[3′-(S)-(1-Methyl)pyrrolidinyl]oxyimino)-5α-hydroxy-6-(E)-methoxyiminoandrostane-17-one fumarate] yielded an IC50 [1, 2] of 96000 nM.

`CO/N=C1\C[C@H]2[C@@H]3CCC(=O)[C@@]3(C)CC[C@@H]2[C@@]2(C)CC/C(=N\O[C@H]3CCN(C)C3)C[C@]12O` [I-by, (E) 3-[3′(S)-(1-Methyl)-pyrrolidinyl]oxyimino)-5α-hydroxy-6-(E)-methoxyiminoandrostane-17-one fumarate] showed an IC50 [1, 2] of 12000 nM.

Work on `CO/N=C1\C[C@H]2[C@@H]3CCC(=O)[C@@]3(C)CC[C@@H]2[C@@]2(C)CC/C(=N/O[C@@H]3CCN(C)C3)C[C@]12O` [I-bz, (Z) 3-[3′-(R)-(1-Methyl)pyrrolidinyl]oxyimino)-5α-hydroxy-6-(E)-methoxyiminoandrostane-17-one fumarate] yielded an IC50 [1, 2] of 94000 nM.

`C[C@@H]1CC2CC(=NO[C@@H]3CCNC3)CC[C@]2(C)[C@H]2CC[C@]3(C)C(=O)CC[C@H]3[C@H]12` (stereo partly drawn) [I-ck, (E,Z) 3-[3′-(R)-Pyrrolidinyl]oxyimino-7α-methylandrostane-17-one hydrochloride] showed an IC50 [1, 3] of 210 nM.

Compound `CC1CC2CC(=NOC3CCNC3)CCC2(C)C2CCC3(C)C(=O)CCC3C12` [I-cm, (E) 3-[3′-(R)-Pyrrolidinyl]oxyimino-7β-methylandrostane-17-one hydrochloride] has an IC50 ([1]; Na+, K+-ATPase Inhibition IC50) of 140 nM.

`CC1CC2CC(=NOC3CCNC3)CCC2(C)C2CCC3(C)C(=O)CCC3C12` [I-cn, (Z) 3-[3′-(R)-Pyrrolidinyl]oxyimino-7β-methylandrostane-17-one hydrochloride] was tested, and the IC50 ([1]; Na+, K+-ATPase Inhibition IC50) was 340 nM.

Work on `COC(=O)[C@@H]1CC2C/C(=N/O[C@@H]3CCNC3)CC[C@]2(C)[C@H]2CC[C@]3(C)C(=O)CC[C@H]3[C@H]12` (stereo partly drawn) [I-cq, (E) 3-[3′-(R)-Pyrrolidinyl]oxyimino-7α-methoxycarbonylandrostane-17-one hydrochloride] yielded an IC50 [1, 3] of 960 nM.

Compound `CN1CC[C@H](O/N=C2\CC[C@@]3(C)C(C2)[C@@H](CO)C(=O)[C@@H]2[C@@H]3CC[C@]3(C)C(=O)CC[C@@H]23)C1` (stereo partly drawn) [I-cu, (E,Z) 3-[3′-(S)-(1-Methyl)-pyrrolidinyl]oxyimino-6α-hydroxymethylandrostane-7,17-dione fumarate] has an IC50 [1, 3] of 2600 nM.

`C[C@]12CC[C@H](OC(=O)C3CCNCC3)CC1C(=O)C[C@@H]1[C@@H]2CC[C@]2(C)C(=O)CC[C@@H]12` (stereo partly drawn) [I-cw, 3β-(4-Piperidinylcarbonyloxy)androstane-6,17-dione hydrochloride] was tested, and the IC50 ([1]; Na+, K+-ATPase Inhibition IC50) was 11000 nM.

`C[C@]12CC[C@H](OC(=O)C3CNC3)CC1C(=O)C[C@@H]1[C@@H]2CC[C@]2(C)C(=O)CC[C@@H]12` (stereo partly drawn) [I-cx, 3β-(3-Azetidincarbonyloxy)androstane-6,17-dione hydrochloride] gave an IC50 ([1]; Na+, K+-ATPase Inhibition IC50) of 4200 nM.

`C[C@]12CC[C@@H](/C=C\[C@@H]3CCNC3)CC1C(=O)C[C@@H]1[C@@H]2CC[C@]2(C)C(=O)CC[C@@H]12` (stereo partly drawn) [I-de, 3α-[2-(Pyrrolidin-3-(S)-yl)-(Z)-vinyl]androstane-6,17-dione formate] gave an IC50 ([1]; Na+, K+-ATPase Inhibition IC50) of 390 nM.

Compound `CC12CCC3C(CC(=O)C4CC(C=CC5CCNCC5)CCC43C)C1CCC2=O` (stereo not drawn) [I-dg, 3α-[2-(Pyperidin-4-yl)-(Z)-vinyl]androstane-6,17-dione formate] has an IC50 [1, 2] of 890 nM.

Compound `C[C@]12CC/C(=N/O[C@H]3CCNC3)CC1[C@@H](CO)C(=O)[C@@H]1[C@@H]2CC[C@]2(C)C(=O)CC[C@@H]12` (stereo partly drawn) [I-di, (Z)-3-[3-(S)-Pyrrolidinyl)oxyimino]-6α-hydroxymethylandrostane-7,17-dione fumarate] has an IC50 ([1]; Na+, K+-ATPase Inhibition IC50) of 210 nM.

`C[C@]12CC/C(=N\O[C@H]3CCNC3)CC1[C@@H](CO)C(=O)[C@@H]1[C@@H]2CC[C@]2(C)C(=O)CC[C@@H]12` (stereo partly drawn) [I-dj, (E)-3-[3-(S)-Pyrrolidinyl)oxyimino]-6α-hydroxymethylandrostane-7,17-dione fumarate] was tested, and the IC50 ([1]; Na+, K+-ATPase Inhibition IC50, dog kidney enzyme, hydrolysis of 32P-ATP in presence and absence of compound) was 36 nM.

Work on `C[C@]12CCC(=NO[C@H]3CCNC3)C=C1/C(=N/O)C[C@@H]1[C@@H]2CC[C@]2(C)C(=O)CC[C@@H]12` [I-dv, (E,Z) 3-[3-(S)-Pyrrolidinyl]oxyimino-6-(E)-hydroxyiminoandrost-4-ene-17-one fumarate] yielded an IC50 [1, 3] of 220 nM.

“(E) 3-[3-(R)-Pyrrolidinyl]oxyiminoandrostane-6,7-dione hydrochloride [I-af]” showed an IC50 [1, 3] of 16 nM.
